Data published in PubChem BioAssay AID504672 (Sanford-Burnham Center for Chemical Genomics, 2011).
pIC50: −log10 of the molar value.

Tested on: S. cerevisiae tim10 strain, luminescence counterscreen
Test: signal inhibition in TIM10 yeast counter-screen, dose response, counter-screen for tim23-1 inhibitor project, luminescence, S. cerevisiae, uHTS hits (AID 504672);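 note: yeast grew roughly 22 hours at 25 °C before the luminescence read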

`C=C1CCc2c([nH]c3ccc(OCC(C)C)cc23)C1=O` and `Cc1cc2cc(CNC(=O)c3ccc(C)c([N+](=O)[O-])c3)ccc2[nH]1` are within 0.2 log units of each other in pIC50: 4.61 for the first, 4.51 for the second.

First: O=C(N/N=C/c1ccc([N+](=O)[O-])s1)c1ccncc1
Second: O=C(N/N=C/c1ccc(Br)s1)c1cccs1
The pIC50 of the first is 0.26 log units higher: 4.90 for the first, 4.64 for the second.

`Cc1ccc(-c2nnc(N3CCN(c4ccccn4)CC3)c3ccccc23)cc1` and `Cc1ccc(-c2nnc(N3CCC(C)CC3)c3ccccc23)cc1` are within 0.2 log units of each other in pIC50: 4.88 for the first, 4.92 for the second.

Going from `CN(C)/C=C1/C=C(c2ccccc2)OC1=O` to `O=Cc1cnc2ccccc2c1-c1ccccc1`, the pIC50 rises from 4.43 to 5.02 (0.59 log units).

First: CN1CCc2nc3sc(C(=O)C45CC6CC(CC(C6)C4)C5)c(N)c3cc2C1
Second: N#C/C(C(N)=O)=c1/ccc2c(c1)N1C3=C(CCCC3)CC3CCCCC31N=2 (stereo not given)
The pIC50 of the first is 1.01 log units lower: 4.06 for the first, 5.07 for the second.

First: O=C(Nc1cccc(Br)c1)C1CCCC1
Second: O=C(COC(=O)CC1CCCC1)Nc1ccc(Cl)cc1
The pIC50 of the first is 0.25 log units lower: 4.85 for the first, 5.10 for the second. The second is the more potent here.

`Cc1ccc(S(=O)(=O)Oc2ccccc2C=C2C(=O)N(C)C(=O)N(C)C2=O)cc1` and `Cc1ccc2c(c1)C(=O)N1[C@H]3c4ccccc4OC[C@@H]3[C@H](c3ccccc3)[C@]1(C)C(=O)N2` are within 0.2 log units of each other in pIC50: 5.34 for the first, 5.45 for the second.

`CC(C)Cn1cnc2c(c(-c3ccccc3)c(-c3ccccc3)n2Cc2ccco2)c1=N` and `O=C(Nc1nc(-c2cccs2)c(-c2ccccc2)s1)c1ccco1` are within 0.2 log units of each other in pIC50: 4.37 for the first, 4.54 for the second.

Compared with `COc1ccc(NCc2ccc([N+](=O)[O-])s2)cc1`, `COc1ccc(C(=O)COC(=O)c2cncc(Br)c2)cc1` is 0.38 log units lower in pIC50: 5.19 for the first, 4.81 for the second.

`Cc1ccc2oc(C(Cl)(Cl)Cl)cc(=O)c2c1` and `Cc1ccc2occ(C(=O)c3ccco3)c(=O)c2c1` are within 0.2 log units of each other in pIC50: 5.06 for the first, 5.04 for the second.

First: COc1cc(/C=C/[N+](=O)[O-])ccc1OC(=O)c1cc2ccccc2oc1=O
Second: COc1cc(/C=N/NC(=O)c2ccc(N)cc2)ccc1OC(=O)c1cccc(C)c1
The pIC50 of the first is 0.34 log units higher: 5.47 for the first, 5.13 for the second. The first is the more potent here.

Compared with `N#Cc1c(-c2ccccc2)cc(-c2ccc(O)cc2)nc1N`, `COc1ccc2c(c1)sc1nc(-c3ccccc3)cn12` is 0.31 log units lower in pIC50: 5.00 for the first, 4.69 for the second.

`NC(=S)N/N=C/c1coc2ccc(Br)cc2c1=O` and `CNC(=S)N/N=C/c1cc(Br)cc(Br)c1O` are within 0.2 log units of each other in pIC50: 5.24 for the first, 5.09 for the second.

`COC(=O)c1ccc(C(=O)OC)c(NC(=O)CSc2cccc[n+]2[O-])c1` and `O=C(NC(=S)NC(=O)c1ccccc1F)c1ccccc1F` are within 0.2 log units of each other in pIC50: 4.97 for the first, 5.08 for the second.

First: Nc1ccc2nc(SCc3ccccc3F)sc2c1
Second: O=c1oc(-c2ccc(Br)o2)nc2ccccc12
The pIC50 of the first is 0.38 log units lower: 4.69 for the first, 5.07 for the second. The second is the more potent here.

Compared with `Cc1oc2cc(O)cc(O)c2c(=O)c1-c1ccc2c(c1)OCCCO2`, `N#C/C(=C/c1ccc(N2CCOCC2)o1)c1nc2ccccc2[nH]1` is 0.39 log units lower in pIC50: 4.97 for the first, 4.58 for the second.

Going from `Cc1ccn(-c2ccc(NC(=O)c3cccs3)cc2)n1` to `O=C(Nc1ccc2nc(-c3ccc(Br)o3)[nH]c2c1)c1cccs1`, the pIC50 falls from 5.29 to 4.29 (1.00 log units). The first is the more potent here.

`CCC(C)c1ccc(NC(=O)C2CC3CCC2C3)cc1` (stereo not given) and `CC(C)n1cc(NC(=O)c2cc(-c3ccccc3)on2)cn1` are within 0.2 log units of each other in pIC50: 4.71 for the first, 4.84 for the second.

`Cc1csc2nc(O)c(C(=O)NC3CCCCC3)c(=O)n12` and `CCOC(=O)c1cnc(-n2nc(C)cc2C)nc1NCCc1ccccc1` are within 0.2 log units of each other in pIC50: 5.03 for the first, 5.08 for the second.

Going from `O=[N+]([O-])c1ccccc1S(=O)(=O)Nc1cccc2cccnc12` to `CSc1nnc(C)c(/C=C/NOCc2ccc(Cl)cc2)n1`, the pIC50 rises from 4.86 to 5.25 (0.39 log units). The second is the more potent here.
